Reference: US20030055065A1, “Tricyclic amide and urea compounds useful for inhibition of G-protein function and for treatment of proliferative diseases” (priority 1993, published 2003)
Where “and” joins values, the source holds several entries; their conditions need not be identical. Equal entries are not always repeated. Where two headings read alike, the source gives them in different places.

Tests used:
[1] = molecular target: T1, geranylgeranyl protein transferase (GGPT) I (Rattus norvegicus, UniProt P53610+Q04631); assay: Inhibition of geranylgeranyl protein transferase I (Ras-CVLL as acceptor); type: biochemical; conditions: for IC50: enzyme inhibition
T1 construct: were partially purified from rat brain by ammonium sulfate fractionation followed by Q-Sepharose
Source text: 1. In vitro enzyme assays: Inhibition of farnesyl protein transferase and geranylgeranyl protein transferase.
Both farnesyl protein transferase (FPT) and geranylgeranyl protein transferase (GGPT) I were partially purified from rat brain by ammonium sulfate fractionation followed by Q-Sepharose (Pharmacia, Inc.) anion exchange chromatography essentially as described by Yokoyama et al (Yokoyama, K., et al., (1991), A protein geranylgeranyltransferase from bovine brain: Implications for protein prenylation specificity, Proc. Natl. Acad. Sci USA 88: 5302-5306, the disclosure of which is incorporated herein by reference thereto). Human farnesyl protein transferase was also expressed in E. coli, using cDNA clones encoding both the α and β subunits. The methods used were similar to those published (Omer, C. et al., (1993), Characterization of recombinant human farnesyl protein transferase: Cloning, expression, farnesyl diphosphate binding, and functional homology with yeast prenyl-protein transferases, Biochemistry 32:5167-5176). Human farnesyl protein transferase was partially-purified from the soluble protein fraction of E. coli as described above. […] Two forms of val^12-Ha-Ras protein were prepared as substrates for these enzymes, differing in their carboxy terminal sequence. One form terminated in cysteine-valine-leucine-serine (Ras-CVLS) the other in cystein-valine-leucine-leucine (Ras-CVLL). Ras-CVLS is a substrate for the farnesyl protein transferase while Ras-CVLL is a substrate for geranylgeranyl protein transferase I. The cDNAs encoding these proteins were constructed so that the proteins contain an amino-terminal extension of 6 histidine residues. Both proteins were expressed in Escherichia coli and purified using metal chelate affinity chromatography. The radiolabelled isoprenyl pyrophosphate substrates, [^3H]farnesyl pyrophosphate and [3H]geranylgeranyl pyrophosphate, were purchased from DuPont/New England Nuclear.
The geranylgeranyl protein transferase I assay was essentially identical to the farnesyl protein transferase assay described above, with two exceptions: [^3H]geranylgeranylpyrophosphate replaced farnesyl pyrophosphate as the isoprenoid donor and Ras-CVLL was the protein acceptor.

[2] = system: T24-BAG4 human bladder carcinoma cells expressing an activated H-ras gene; assay: Cell Mat Assay: tumor cell colony inhibition (tIC50); type: cell-based; conditions: inhibition of tumor cell growth
Outline: (§1)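 Serial compound dilutions added 24 h after planting T24-BAG4 cells onto a mat of normal cells, then 14 d colony growth; monolayers glutaraldehyde-fixed and tumor cells X-Gal stained. tIC50 and mIC50 from microscope counts of colonies, cells per colony and mat cell density.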

[3] = system: Normal human HEPM fibroblasts; assay: Cell Mat Assay: density of mat cells (mIC50); type: cell-based
Outline: as §1

[4] = molecular target: T2, farnesyl protein transferase (FPT), partially purified from rat brain (Rattus norvegicus, UniProt Q02293+Q04631); assay: Inhibition of farnesyl protein transferase (transfer of [3H]farnesyl to Ras-CVLS); type: biochemical
T2 construct: were partially purified from rat brain by ammonium sulfate fractionation followed by Q-Sepharose
Outline: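 Partially purified farnesyl protein transferase with His6-tagged val12-Ha-Ras-CVLS substrate and [3H]farnesyl pyrophosphate, 30 min at room temperature. Stopped with SDS/TCA, precipitated Ras collected on GF/C filters; percent inhibition relative to DMSO vehicle control.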

[5] = system: Ras-CVLS processing in COS monkey kidney cells; assay: COS cell assay: Ras-CVLS processing (Western blot); type: cell-based; conditions: COS cells; for Inhibition of Ras Processing at the concentration in parentheses: (5) μM; for IC50: read-out: Inhibition of Ras Processing IC50
Method: 2. […] Effect of farnesyl protein transferase inhibitors on Ras processing and on disordered cell growth induced by transforming Ras. COS monkey kidney cells were transfected by electroporation with the plasmid pSV-SPORT (Gibco/BRL) containing a cDNA insert encoding either Ras-CVLS or Ras-CVLL, leading to transient overexpression of a Ras substrate for either farnesyl protein transferase or geranylgeranyl protein transferase I, respectively (see above). […] After 24 hours, media was removed and fresh media containing the appropriate drugs was re-added. 48 hours after electroporation cells were examined under the microscope to monitor disordered cell growth induced by transforming Ras. Cells expressing transforming Ras become more rounded and refractile and overgrow the monolayer, reminiscent of the transformed phenotype. […] Cells were lysed by homogenization and cell debris was removed by centrifugation at 2000×g for 10 min. Cellular protein was precipitated by addition of ice-cold trichloroacetic acid and redissolved in 100 μl of SDS-electrophoresis sample buffer. […] Proteins resolved on the gels were electroblotted onto nitrocellulose membranes for immunodetection. […] E., et al., (1982), Monoclonal antibodies to the p21 products of the transforming gene of Harvey murine sarcome virus and of the cellular ras gene family, J. Virol. 43: 294-304), in PBS containing 1% fetal calf serum for one hour at room temperature. After washing, membranes were incubated for one hour at room temperature with a 1:5000 dilution of secondary antibody, rabbit anti-rat IgG conjugated to horseradish peroxidase, in PBS containing 1% fetal calf serum.

[6] = Ras-CVLS farnesylation, partially purified rat brain FPT, read-out: FPT IC50
[7] = enzyme inhibition, read-out: FPT IC50

T2 sequence (Q02293 whole entry, one chain of several): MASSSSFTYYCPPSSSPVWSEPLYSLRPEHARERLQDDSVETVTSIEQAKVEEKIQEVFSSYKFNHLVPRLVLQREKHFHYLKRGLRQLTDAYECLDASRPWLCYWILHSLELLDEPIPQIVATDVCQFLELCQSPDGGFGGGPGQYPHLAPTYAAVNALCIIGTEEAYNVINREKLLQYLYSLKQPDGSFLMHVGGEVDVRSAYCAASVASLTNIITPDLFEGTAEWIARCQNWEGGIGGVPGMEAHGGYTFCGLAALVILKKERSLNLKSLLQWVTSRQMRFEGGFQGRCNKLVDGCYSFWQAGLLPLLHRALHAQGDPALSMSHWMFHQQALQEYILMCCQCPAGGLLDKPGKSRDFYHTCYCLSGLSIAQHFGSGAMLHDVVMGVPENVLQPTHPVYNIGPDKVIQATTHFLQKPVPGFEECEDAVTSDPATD
T1 sequence (P53610 whole entry, one chain of several): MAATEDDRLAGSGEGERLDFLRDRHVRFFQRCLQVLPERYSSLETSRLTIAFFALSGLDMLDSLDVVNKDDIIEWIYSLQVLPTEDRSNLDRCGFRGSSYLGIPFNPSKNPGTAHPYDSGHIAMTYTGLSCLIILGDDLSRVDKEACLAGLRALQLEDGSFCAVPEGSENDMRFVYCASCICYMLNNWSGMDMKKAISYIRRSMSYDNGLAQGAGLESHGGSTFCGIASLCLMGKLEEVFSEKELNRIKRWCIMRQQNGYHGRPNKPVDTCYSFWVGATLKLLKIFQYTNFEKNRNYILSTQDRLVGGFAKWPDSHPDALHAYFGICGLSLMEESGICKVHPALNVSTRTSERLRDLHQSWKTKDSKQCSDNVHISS

Row | IC50 [1] [µM] | IC50 ([2]; Homo sapiens) [µM] | IC50 [4, 6] | IC50 [4, 7] | SMILES | IC50 ([3]; Homo sapiens, Fibroblast) [µM] | IC50 ([5]; Primates, COS) [µM] | further results
1 | > 50 | > 50 |  |  | O=C(CN1C(=O)c2ccccc2C1=O)N1CCN(C2c3ccc(Cl)cc3CCc3cccnc32)CC1 (stereo not shown) [Example 76] | > 50 |  | 
2 |  | < 1.6 | 0.036 µM | 0.036 µM | O=C(Cc1cc[n+]([O-])cc1)N1CCC(C2c3ccc(Cl)cc3CCc3cc(Br)cnc32)CC1 (stereo not shown) [Example 400-F] | > 25 |  | GGPT inhibition at the concentration in parentheses ([1]; (36) μM): 0 (36)
3 | 1000 | < 1.6 | 0.063 µM and 0.08 µM | 0.063 µM and 0.08 µM | O=C(Cc1cc[n+]([O-])cc1)N1CCC(=C2c3ccc(Cl)cc3CCc3cc(I)cnc32)CC1 [Example 401] | > 25 |  | GGPT inhibition at the concentration in parentheses ([1]; (34) μM): 7 (34)
4 | > 42 |  | 0.23 µM |  | O=C(Cc1ccncc1)N1CCC(=C2c3ccc(Br)cc3CCc3cccnc32)CC1 [Example 181] |  |  | 
5 | > 40 |  | 0.06 µM |  | O=C(Cc1ccncc1)N1CCC(=C2c3ccc(Cl)cc3CCc3cc(Br)cnc32)CC1 [Example 246] | 50 |  | IC50 ([3]; listed as 246 (5.121)): > 50 µM
6 |  | 12.5 | 1.8 µM |  | CC(=O)N1CCC(C(=O)N2CCN([C@H]3c4ccc(Cl)cc4CCc4cccnc43)CC2)CC1 [226 (5.101)] | > 50 | 6.5 | 
7 |  | 18 |  | 0.32 µM | CC(C)(C(=O)N1CCC(=C2c3ccc(Cl)cc3CCc3cc(Br)cnc32)CC1)c1ccncc1 [Example 411] | > 25 | ~1 | Inhibition of Ras Processing at the concentration in parentheses [5]: 93 (5)
8 |  | < 1.6 | 0.04 µM | 0.04 µM | O=C(Cc1ccncc1)N1CCC(C2c3ccc(Cl)cc3CCc3cc(Br)cnc32)CC1 (stereo not shown) [Example 400-E] | 18 |  | GGPT inhibition at the concentration in parentheses ([1]; (38) μM): 30 (38)
9 | 1000 |  | 0.14 µM | 0.14 µM | CN1CCC(CC(=O)N2CCC(C3c4ccc(Cl)cc4CCc4cc(Br)cnc43)CC2)CC1 (stereo not shown) [Example 400-J] |  |  | GGPT inhibition at the concentration in parentheses ([1]; (36) μM): 6 (36)
10 |  | 6.25 | 0.76 µM and 0.3 µM |  | CC(C)(C(=O)N1CCN(C2c3ccc(Cl)cc3CCc3cc(Br)cnc32)CC1)c1cccnc1 (stereo not shown) [Example 353] | > 25 | 0.9 | 
11 |  | 3.1 |  | 0.39 µM | CC(C)(C(=O)N1CCN(C2c3ccc(Cl)cc3CCc3cc(Br)cnc32)CC1)c1cc[n+]([O-])cc1 (stereo not shown) [Example 425-J] | > 25 | 5 | 
12 |  | 18 | 0.67 µM |  | O=C(Cc1ccc[n+]([O-])c1)N1CCC(C2c3ccc(Cl)cc3CCc3cccnc32)CC1 (stereo not shown) [Example 233] | > 50 | 10 | 

Continued, compound first:

Row | SMILES | IC50 [1] [µM] | IC50 ([2]; Homo sapiens) [µM] | IC50 [4, 6] | IC50 [4, 7] | IC50 ([3]; Homo sapiens, Fibroblast) [µM] | IC50 ([5]; Primates, COS) [µM] | further results
13 | CC1(C2CCN(C(=O)Cc3ccncc3)CC2)c2ccc(Cl)cc2CCc2cc(Br)cnc21 (stereo not shown) [Example 410-A] | ~40 |  | 0.086 µM | 0.086 µM |  |  | GGPT inhibition at the concentration in parentheses ([1]; (35) μM): 47 (35)
14 | O=C(c1ccc(O)c(O)c1)N1CCC(=C2c3ccc(Cl)cc3CCc3cccnc32)CC1 [Example 8] | 42 |  | 2.3 µM | 2.3 µM |  |  | 
15 | O=C(Nc1cccnc1)N1CCN(C2c3ccc(Cl)cc3CCc3cc(Br)cnc32)CC1 (stereo not shown) [Example 354] | 1000 | 6.25 | 0.21 µM |  | ≥ 25 |  | 
16 | CN1CCC(CC(=O)N2CCC(=C3c4ccc(Cl)cc4CCc4cc(Br)cnc43)CC2)CC1 [Example 400-H] | 1000 |  | 0.24 µM | 0.24 µM |  | 2.5 | GGPT inhibition at the concentration in parentheses ([1]; (36) μM): 0 (36); Inhibition of Ras Processing at the concentration in parentheses [5]: 100 (5)
17 | O=C(Cc1cc[n+]([O-])cc1)N1CCC(=C2c3ccc(Cl)cc3C=Cc3cc(Br)cnc32)CC1 [Example 417-B] |  | < 1.6 |  | 0.14 µM | > 25 |  | GGPT inhibition at the concentration in parentheses ([1]; (32) μM): 15 (32)
18 | O=C(Cc1ccncc1)N1CCC(=C2c3ccc(Cl)cc3CCc3cc(I)cnc32)CC1 [Example 400] |  | 1.6 | 0.068 µM | 0.068 µM | > 25 |  | GGPT inhibition at the concentration in parentheses ([1]; (36) μM): 29 (36)
19 | O=C(Cc1ccncc1)N1CCC(=C2c3ccc(Cl)cc3CCc3cc(Cl)cnc32)CC1 [Example 180] | > 42 | 12.5 | 0.04 µM |  | 50 |  | IC50 [2]: 18 µM; IC50 [3]: > 50 µM
20 | O=C(CN1CCS(=O)(=O)CC1)N1CCC(=C2c3ccc(Cl)cc3CCc3cc(Br)cnc32)CC1 [Example 410-G] |  |  | 0.21 µM | 0.21 µM |  | 4 | GGPT inhibition at the concentration in parentheses ([1]; (33) μM): 32 (33)
21 | CC1(C2CCN(C(=O)Cc3cc[n+]([O-])cc3)CC2)c2ccc(Cl)cc2CCc2cc(Br)cnc21 (stereo not shown) [Example 410-B] | 1000 |  | 0.084 µM | 0.084 µM |  |  | GGPT inhibition at the concentration in parentheses ([1]; (35) μM): 21 (35)
22 | O=C(Nc1cccnc1)N1CCN(C2c3ccc(Cl)cc3CCc3cccnc32)CC1 (stereo not shown) [187 (6.7)] |  | 37 | 1.34 µM |  | > 50 | 4.8 | IC50 [2]: 25 µM
23 | O=C(Cc1ccncc1)N1CCC(C2c3ccc(Cl)cc3C(=NO)Cc3cccnc32)CC1 (stereo not shown) [Example 419] |  |  |  | < 0.12 µM |  |  | GGPT inhibition at the concentration in parentheses ([1]; (41) μM): 0 (41)
24 | CO[C@@](C(=O)N1CCC(=C2c3ccc(Cl)cc3CCc3cccnc32)CC1)(c1ccccc1)C(F)(F)F [Example 290] | > 38 | 12.5 | 3.8 µM and 2.55 µM |  | > 50 |  | IC50 [2]: 6.25 µM and 8 µM
25 | O=C(Cc1cc[n+]([O-])cc1)N1CCN(C2c3ccc(Cl)cc3CCc3c(Cl)ccnc32)CC1 (stereo not shown) [Example 426-A] |  | 6.25 |  | 0.33 µM | > 25 | > 5 | 
26 | O=C(Cc1cc[n+]([O-])cc1)N1CCC(=C2c3ccc(Cl)cc3CCc3cc(Cl)cnc32)CC1 [Example 411-W] |  |  |  | 0.16 µM and 0.17 µM |  |  | GGPT inhibition at the concentration in parentheses ([1]; (42) μM): 3 (42)
27 | CN1CCC(CC(=O)N2CCC(C3c4ccc(Cl)cc4C=Cc4cc(Br)cnc43)CC2)CC1 (stereo not shown) [Example 400-B] | > 38 | < 1.6 | 0.068 µM | 0.068 µM |  |  | 
28 | O=C(Cc1cc[n+]([O-])cc1)N1CCN([C@H]2c3ccc(Cl)cc3CCc3cccnc32)CC1 [Example 425-E] |  | 1.6 |  | 0.49 µM | > 25 | 5 | 
29 | CC(C)(C)c1cnc2c(c1)CCc1cc(Cl)ccc1C2=C1CCN(C(=O)Cc2cccnc2)CC1 [Example 304] | > 40 |  | 2.63 µM |  |  |  | IC50 [3]: > 50 µM
30 | O=C(Cc1cccnc1)N1CCC(C2c3ccc(Cl)cc3C=Cc3cccnc32)CC1 (stereo not shown) [Example 266] |  | 3.1 |  |  | 6.25 | 0.77 | IC50 ([4]; FPT IC50, Ras-CVLS farnesylation, partially purified rat brain FPT): 0.46 µM; IC50 ([5]; listed as 266 (5.138)): 0.89 µM
